Results from the NIST ThermoML archive (doi:10.1016/j.jct.2005.03.006).

Assay: wn = mass fraction of the nth substance listed
Conditions: Liquid, Buoyancy - hydrostatic balance

CCc1ccccc1 [ethylbenzene] + CO
mass density [kg/m3]
Conditions	100 kPa	5000 kPa	9900 kPa	19700 kPa	29700 kPa	39300 kPa	49100 kPa	58900 kPa
292.05 K, w2 = 0.5	830.6	834.1	838.5	845.6	852.2	858.6	864.4	871.2
292.4 K, w2 = 0.75	813.3	817.6	822.1	827.7	836.5	843	848.8	855.8
292.65 K, w2 = 0.25	848	851.5	855.3	862.7	868.8	874.8	880.7	886.8
314.55 K, w2 = 0.5	810.8	815.2	819.6	827.8	835.2	842	848.6	854.4
314.65 K, w2 = 0.25	828.6	833.1	837.2	845.1	852	859	869.3	871.5
317.6 K, w2 = 0.75	795.3	799.8	804	810.8	820.2	827.4	–	840.4
335.35 K, w2 = 0.75	–	778.8	783	790.7	801.3	809.4	816.4	823.5
335.45 K, w2 = 0.25	–	815	819.5	828.3	836.8	844.1	850.4	856.4
337.65 K, w2 = 0.5	–	794.3	799.5	808.3	816.7	824.4	831.7	837.8
358.8 K, w2 = 0.75	–	754.4	759.7	768.5	780.5	789.6	797.4	805.5
359.95 K, w2 = 0.25	–	790.3	796.2	807.6	817.7	825.5	831.8	838
360.45 K, w2 = 0.5	–	771.3	778.5	788.1	797.9	806.5	814.1	820.5
384.05 K, w2 = 0.75	–	725.4	732.8	743	757.2	767.3	776.2	785.4
